Holding throughout (assay): biochemical
Assay [1] has as its target BRM (Isoform 2) Bromodomain (Homo sapiens, UniProt P51531). From the text: IC50 measurements for inhibitors using BRM SM TR-FRET Binding Assay
Assay [2] addresses Polybromodomain-1 BromoDomain-5 (PB1-BD5) (Homo sapiens, UniProt Q86U86). From the text: IC50 measurements for inhibitors using Polybromodomain-1 BromoDomain-5 (PB1-BD5) SM TR-FRET Binding Assay
For a further assay, the target named is BRG1 (Homo sapiens, UniProt P51532). The assay is classed as binding. The note with it: BRG1 HTRF IC50 (µM). From the text: IC50 measurements for inhibitors using BRG1 TR-FRET Binding Assay
(In general: TR-FRET usually uses a lanthanide donor and a delayed reading to cut background.)

Chain of Polybromodomain-1 BromoDomain-5 (PB1-BD5) (Q86U86 645-766): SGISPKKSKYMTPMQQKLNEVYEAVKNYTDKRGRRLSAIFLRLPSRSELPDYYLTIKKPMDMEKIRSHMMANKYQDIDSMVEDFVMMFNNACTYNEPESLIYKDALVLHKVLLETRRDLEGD
Chain of BRM (Isoform 2) Bromodomain (P51531 1377-1486 isoform P51531-2): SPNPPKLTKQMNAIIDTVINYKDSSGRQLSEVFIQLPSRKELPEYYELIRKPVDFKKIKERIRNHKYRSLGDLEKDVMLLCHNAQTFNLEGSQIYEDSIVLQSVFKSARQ
Chain of BRG1 (P51532 1448-1575): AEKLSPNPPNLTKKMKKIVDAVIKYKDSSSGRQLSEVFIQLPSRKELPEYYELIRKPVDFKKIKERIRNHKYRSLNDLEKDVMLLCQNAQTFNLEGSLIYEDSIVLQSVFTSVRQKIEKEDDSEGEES

By IC50 is commonly meant the concentration needed to halve the response being measured. For the molecule `Cn1cc(-c2cc(-c3ccccc3O)nnc2N)cn1` [Example 187, 2-(6-amino-5-(1-methyl-1H-pyrazol-4-yl)pyridazin-3-yl)phenol], the IC50 was 10 nM in assay [1] and 3.7 nM in assay [2].
With `Nc1nnc(-c2ccccc2O)cc1OC1CCN(Cc2ccccc2)C1` (centres unmarked) [Example 180, 2-(6-amino-5-((1-benzylpyrrolidin-3-yl)oxy)pyridazin-3-yl)phenol], the IC50 stood at 59.7 nM in assay [1], 43.9 nM in assay [2] and 0.0432 µM against BRG1.
On to `CN(C)CCOc1cc(-c2ccccc2O)nnc1N` [Example 173, 2-(6-amino-5-(2-(dimethylamino)ethoxy)pyridazin-3-yl)phenol], for which the values for the IC50 (in assay [1]; in assay [2]; against BRG1) were 276 nM, 257 nM and 0.263 µM, respectively.
Consider `CC(c1ccccc1)N1CCN(c2cc(-c3ccccc3O)nnc2N)CC1` (centres unmarked) [Example 15, 2-(6-amino-5-(4-(1-phenylethyl)piperazin-1 - yl)pyridazin-3-yl)phenol], for which the values for the IC50 in assay [1] and in assay [2] were 36.1 nM and 24.5 nM, respectively.
In the case of `Nc1nnc(-c2ccccc2O)cc1OCCc1ccccc1` [Example 174, 2-(6-amino-5-phenethoxypyridazin-3-yl)phenol], the IC50 in assay [1] came out at 19 nM; in assay [2], 8.8 nM; at BRG1, 0.0148 µM.
Regarding `CC(=O)N1CCN(c2cc(-c3ccccc3O)nnc2N)CC1` [Example 4, 1-(4-(3-amino-6-(2-hydroxyphenyl)pyridazin-4-yl)piperazin-1-yl)ethan-1-one], the figures for the IC50 (in assay [1]; in assay [2]; against BRG1) were 71.7 nM, 24.6 nM and 0.0659 µM, respectively.
`Nc1nnc(-c2ccccc2O)cc1N1CC2CCC(C1)N2Cc1ccccc1` [Example 16, 2-(6-amino-5-(8-benzyl-3,8-diazabicyclo[3.2.1]octan-3-yl)pyridazin-3-yl)phenol]: the IC50 in assay [1] is 79 nM; in assay [2], 51.3 nM; on BRG1, 0.0563 µM.
On to `CC(COc1cc(-c2ccccc2O)nnc1N)c1ccccc1` (centres unmarked) [Example 178, 2-(6-amino-5-(2-phenylpropoxy)pyridazin-3-yl)phenol], for which the IC50 in assay [1] worked out at 7.2 nM; in assay [2], 5.3 nM; against BRG1 it was 0.0122 µM.
Take `CC(Cc1ccccc1)Oc1cc(-c2ccccc2O)nnc1N` (centres unmarked) [Example 177, 2-(6-amino-5-((1-phenylpropan-2-yl)oxy)pyridazin-3-yl)phenol]: the IC50 in assay [1] worked out at 92.5 nM; in assay [2], 29.2 nM; against BRG1, 0.1 µM.
On to `Nc1nnc(-c2ccccc2O)cc1N1CC(Oc2ccccc2)C1` [Example 57, 2-(6-amino-5-(3-phenoxyazetidin-1-yl)pyridazin-3-yl)phenol], for which the IC50 in assay [1] was determined as 35.6 nM; at BRG1, 0.0177 µM.
Take `Nc1nnc(-c2ccccc2O)cc1C1CCN(S(=O)(=O)c2ccccc2)C1` (centres unmarked) [Example 217, 2-(6-amino-5-(1-(phenylsulfonyl)pyrrolidin-3-yl)pyridazin-3-yl)phenol]: the IC50 is 466 nM in assay [1], 268 nM in assay [2] and 0.412 µM on BRG1.
`CS(=O)(=O)N1CCN(c2cc(-c3ccccc3O)nnc2N)CC1Cc1ccccc1` (centres unmarked) [Example 119, 2-(6-amino-5-(3-benzyl-4-(methylsulfonyl)piperazin-1-yl)pyridazin-3-yl)phenol]: the values for the IC50 (in assay [2]; against BRG1) were 23.3 nM and 0.0385 µM, respectively.
As to `CN(C)CC1CCN(c2cc(-c3ccccc3O)nnc2N)CC1` [Example 5, 2-(6-amino-5-(4-((dimethylamino)methyl)piperidin-1-yl)pyridazin-3-yl)phenol], the values for the concentration for half-maximal inhibition (IC50) (in assay [1]; against BRG1) were 22.5 nM and 0.0395 µM, respectively.
Regarding `CN(C)Cc1ccc(-c2cc(-c3ccccc3O)nnc2N)cc1` [Example 189, 2-(6-amino-5-(4-((dimethylamino)methyl)phenyl)pyridazin-3-yl)phenol], the IC50 in assay [1] was 49.3 nM; in assay [2] it was 28.8 nM; against BRG1 it was 0.0222 µM.
On to `Nc1nnc(-c2ccccc2O)cc1C1CCCC1` [Example 210, 2-(6-amino-5-cyclopentylpyridazin-3-yl)phenol], for which the IC50 in assay [1] came out at 25 nM; in assay [2] it was 14.9 nM; on BRG1, 0.0239 µM.
For `CC1CN(c2cc(-c3ccccc3O)nnc2N)CCN1C(=O)C(C)(C)C` (centres unmarked) [Example 129, 1-(4-(3-amino-6-(2-hydroxyphenyl)pyridazin-4-yl)-2-methylpiperazin-1-yl)-2,2-dimethylpropan-1-one], the IC50 is 18.4 nM in assay [1], 6.8 nM in assay [2] and 0.0104 µM against BRG1.
With `C[C@H](Oc1cc(-c2ccccc2O)nnc1N)c1ccccc1` [Example 170, (S)-2-(6-amino-5-(1-phenylethoxy)pyridazin-3-yl)phenol], the IC50 in assay [1] turned out to be 14.9 nM; in assay [2], 9.6 nM.
Turning to `Nc1nnc(-c2ccccc2O)cc1N1C[C@H]2CN(Cc3ccccc3)C[C@H]2C1` [Example 9, 2-(6-amino-5-((3aR,6aS)-5-benzylhexahydropyrrolo[3,4-c]pyrrol-2(1H)-yl)pyridazin-3-yl)phenol], the results for the IC50 (in assay [1]; in assay [2]; against BRG1) were 47.6 nM, 18.2 nM and 0.0615 µM, respectively.
Regarding `Nc1nnc(-c2ccccc2O)cc1N1CCN(Cc2cccnc2)CC1` [Example 3, 2-(6-amino-5-(4-(pyridin-3-ylmethyl)piperazin-1-yl)pyridazin-3-yl)phenol], the IC50 came out at 25.2 nM in assay [2] and 0.0373 µM on BRG1.
Take `Nc1nnc(-c2ccccc2O)cc1N1CCOCC1` [Example 45, 2-(6-amino-5-morpholinopyridazin-3-yl)phenol]: the IC50 came out at 71.5 nM in assay [1], 20.9 nM in assay [2] and 0.101 µM against BRG1.
Take `C[C@@H](C1CCN(c2cc(-c3ccccc3O)nnc2N)CC1)N(C)C` [Example 60, (S)-2-(6-amino-5-(4-(1-(dimethylamino)ethyl)piperidin-1-yl)pyridazin-3-yl)phenol]: at BRG1, half-maximal inhibition (IC50) was put at 0.0247 µM.
For `Nc1nnc(-c2ccccc2O)cc1N1CCNC(Cc2ccccc2)C1` (centres unmarked) [Example 49, 2-(6-amino-5-(3-benzylpiperazin-1-yl)pyridazin-3-yl)phenol], at BRG1, the IC50 came to 0.0848 µM.
As to `Nc1nnc(-c2ccccc2O)cc1N1CCN(c2ccccc2)C(=O)C1` [Example 64, 4-(3-amino-6-(2-hydroxyphenyl)pyridazin-4-yl)-1-phenylpiperazin-2-one], half-maximal inhibition at BRG1 (IC50) was put at 0.208 µM.
On to `CC1CN(c2cc(-c3ccccc3O)nnc2N)CC(C)N1Cc1ccccc1` (centres unmarked) [Example 37, 2-(6-amino-5-(4-benzyl-3,5-dimethylpiperazin-1 - yl)pyridazin-3-yl)phenol], for which the IC50 against BRG1 was determined as 0.102 µM.
With `Nc1nnc(-c2ccccc2O)cc1C1CCN(Cc2ccccc2)CC1` [Example 218, 2-(6-amino-5-(1-benzylpiperidin-4-yl)pyridazin-3-yl)phenol], the IC50 in assay [2] was 44.8 nM; against BRG1, 0.0553 µM.
On to `Nc1nnc(-c2ccccc2O)cc1N1CCN(Cc2ncco2)CC1` [Example 97, 2-[6-amino-5-[4-(oxazol-2-ylmethyl)piperazin-1-yl]pyridazin-3-yl]phenol], for which half-maximal inhibition against BRG1 (IC50) was put at 0.0714 µM.
`CC1CN(c2cc(-c3ccccc3O)nnc2N)CC(C)O1` (racemic) [Example 33, 2-(6-amino-5-(2,6-dimethylmorpholino)pyridazin-3-yl)phenol]: the IC50 in assay [1] was 69.6 nM; in assay [2] it was 24 nM.
In turn, `Nc1nnc(-c2ccccc2O)cc1N1CC2CCC(C1)N2c1cnccn1` [Example 50, 2-(6-amino-5-(8-(pyrazin-2-yl)-3,8-diazabicyclo[3.2.1]octan-3-yl)pyridazin-3-yl)phenol] yielded an IC50 against BRG1 of 0.0106 µM.
On the same count and under the same terms, the result for `Cn1nccc1-c1cc(-c2ccccc2O)nnc1N` [Example 193, 2-(6-amino-5-(1-methyl-1H-pyrazol-5-yl)pyridazin-3-yl)phenol] reads 1.08 µM.
Turning to `CC(c1ccccc1)n1cc(-c2cc(-c3ccccc3O)nnc2N)cn1` (centres unmarked) [Example 188, 2-(6-amino-5-(1-(1-phenylethyl)-1H-pyrazol-4-yl)pyridazin-3-yl)phenol], the concentration for half-maximal inhibition (IC50) in assay [1] came to 5.7 nM; in assay [2], 2.5 nM.
`Cc1cc(CN2CCN(c3cc(-c4ccccc4O)nnc3N)CC2)no1` [Example 101, 2-[6-amino-5-[4-[(5-methylisoxazol-3-yl)methyl]piperazin-1-yl]pyridazin-3-yl]phenol] showed an IC50 at BRG1 of 0.0653 µM.
For the molecule `Nc1nnc(-c2ccccc2O)cc1C(=O)NCc1ccccc1` [Example 234, 3-amino-N-benzyl-6-(2-hydroxyphenyl)pyridazine-4-carboxamide], the half-inhibitory concentration (IC50) on BRG1 came to 0.102 µM.
On the same count and under the same terms, the figure for `CS(=O)(=O)N1CCC(c2cc(-c3ccccc3O)nnc2N)CC1` [Example 228, 2-(6-amino-5-(1-(methylsulfonyl)piperidin-4-yl)pyridazin-3-yl)phenol] is 0.0537 µM; for `Nc1nnc(-c2ccccc2O)cc1N1CCC(c2ccccc2)CC1` [Example 18, 2-(6-amino-5-(4-phenylpiperidin-1-yl)pyridazin-3-yl)phenol] it is 0.0967 µM.
As for `Cc1cc(CC(=O)N2CCN(c3cc(-c4ccccc4O)nnc3N)CC2C)on1` (centres unmarked) [Example 136, 1-(4-(3-amino-6-(2-hydroxyphenyl)pyridazin-4-yl)-2-methylpiperazin-1-yl)-2-(3-methylisoxazol-5-yl)ethan-1-one], half-maximal inhibition against BRG1 (IC50) required 0.0444 µM.
Regarding `Nc1nnc(-c2ccccc2O)cc1N1CCN(Cc2n[nH]c3ccccc23)CC1` [Example 102, 2-[6-amino-5-[4-(1H-indazol-3-ylmethyl)piperazin-1-yl]pyridazin-3-yl]phenol], the IC50 against BRG1 came to 0.0259 µM.
As for `Nc1nnc(-c2ccccc2O)cc1OC1CCCC1` [Example 176, 2-(6-amino-5-(cyclopentyloxy)pyridazin-3-yl)phenol], at BRG1, the IC50 turned out to be 0.0371 µM.
Consider `Nc1nnc(-c2ccccc2O)cc1N1CCN(C(=O)c2cncs2)C(CO)C1` (centres unmarked) [Example 143, (4-(3-amino-6-(2-hydroxyphenyl)pyridazin-4-yl)-2-(hydroxymethyl)piperazin-1-yl)(thiazol-5-yl)methanone], for which the IC50 against BRG1 worked out at 0.0206 µM.

For the origin of these results see patent publication EP3262036B1, “THERAPEUTIC PYRIDAZINE COMPOUNDS AND USES THEREOF” (priority 2015, dated 2016).
